US20230310418A1, “COMPOSITIONS AND METHODS FOR TREATING CANCER OR PREVENTING, INHIBITING OR REDUCING RISK OF METASTASIS OF A CANCER” (Lixte Biotechnology, Inc., priority 2022, published 2023)
“Also recorded” adds a separate entry of the source. Read-outs that look alike come from different tables or passages of the source.

Tests used:
[1] = system: colorectal cancer cell lines; assay: cells
Protocol: Drug-response assays were performed in triplicate, using black-walled 384-well plates. Cells were plated with a 20% density (approximately) and incubated for approximately 24 hours to allow attachment to the plate. […] 10 µM phenylarsine oxide was used as positive control (0% cell viability) and DMSO was used as negative control (100% cell viability). 3-5 days later, culture medium was removed and resazurin was added to the plates. After 1-4 hours incubation (depending on the cell line), fluorescence (560Ex/590Em) was recorded using the EnVision (Perkin Elmer).
The effect of increasing doses of LB-100 to the Table 1 cell lines, both in short-term cell viability assays (FIG. 1A) and long-term cell proliferation assays (FIG. 1B), was analyzed. For the short-term study, cells were cultured with increasing concentrations of LB-100 for 5 days. Then the cell viability was measured using resazurin.
Adavosertib was used as the WEE1 kinase inhibitor to investigate the effect of the combination with LB-100 in the panel of CRC cells. […] Toxicity of the combination in long-term viability assays was assessed. The cells were cultured for at least ten days and the drugs were refreshed every other day. The toxicity of the single drugs in this experimental setup was assessed. […] Cells were then treated at the indicated conditions and confluence over time was measured by IncuCyte®, FIG. 3D).

[2] = system: cholangiocarcinoma (CCA) cell lines; assay: Short-term cell viability dose-response assay (resazurin); assay type: cell-based; settings: 120 h, read-out: IC50s from dose-response curves
Text: (§1) The efficacy of the LB-100/adavosertib combination in the CRC cell lines encouraged further evaluation in other tumor types lacking effective treatment options. Pancreatic ductal adenocarcinomas (PDACs) are refractory to conventional therapies and the 5-year survival rates remain one of the lowest among all cancers. Similarly, despite a much lower overall incidence, cholangiocarcinomas (CCAs) share with PDACs the frequent lack of response to conventional therapies and the dismal prognosis. A panel of four PDAC cell lines and a similar one with CCA cells were assembled to assess the efficacy of LB-100 and adavosertib in these cancer types. […] To investigate the effects of the combination in the PDAC and CCA cancer cell lines systematically, the same experimental workflow used for the CRC panel was employed. First, the long-term toxicity of LB-100 and adavosertib was addressed in the PDAC and CAA cell lines (FIG. 5D and FIG. 8C). […] As observed for DiFi and RKO, the doses of adavosertib used in the synergy assays are already toxic to AspC-1, EGI, and HuCC-T1 cells (FIG. 5C, FIG. 8A, and FIG. 8B).

[3] = system: pancreatic ductal adenocarcinoma (PDAC) cell lines; assay: as above; assay type: cell-based; settings: 120 h, read-out: IC50s from dose-response curves
Text: as §1

[4] = system: mitogenic signaling pathways and stress response pathways; assay: Time-course Western blots; assay type: cell-based; settings: DiFi, HT-29 and SW-480 cells; vinculin control (FIG. 1C-1E)
Protocol: After the indicated culture period and drug treatment, cells were washed with cold PBS, then lysed with RIPA buffer (25 mM Tris-HCl, pH 7.6, 150 mM NaCl, 1% NP-40, 1% sodium deoxycholate, 0.1% SDS) containing Complete Protease Inhibitor cocktail and phosphatase inhibitor cocktails II and III. Samples were then centrifuged for 10 min at 15,000 x g at 4° C. and supernatant was collected. Protein concentration of the samples was normalized after performing a Bicinchoninic Acid (BCA) assay. Protein samples (denatured with DTT followed by 5 min heating at 95° C.) were then loaded in a 4-12% polyacrylamide gel. Gels were run (SDS-PAGE) for approximately 45 min at 175 volts. Proteins were transferred from the gel to a polyvinylidene fluoride (PVDF) membrane at 330 mA for 90 min. After the transfer, membranes were incubated in blocking solution (5% bovine serum albumin (BSA) in PBS with 0.1% Tween-20 (PBS-T)). Subsequently, membranes were probed with primary antibody in blocking solution (1:1000) overnight at 4° C. Membranes were then washed 3 times for 10 min with PBS-T, followed by 1 h incubation at room temperature with the secondary antibody (HRP conjugated, 1:10,000) in blocking solution. […]
(§2) Then the cell viability was measured using resazurin.

[5] = system: colorectal cancer cell lines; assay type: cell-based; settings: for toxicity when combined with LB-100, long-term cell proliferation: SW-480 cells, multiple concentrations, 10-14 days (FIG. 2F)
Protocol: Finally, plates were scanned and stored.
as §2

HT-29 cells = assay: Stress-focused drug screen of 164 compounds with or without LB-100; assay type: cell-based; settings: 2.5 µM LB-100 (sub-lethal); cell viability after three days (FIG. 2C)
Text: These compounds were investigated in 15 different concentrations using a literature-based concentration range in order to obtain dose-response curves for each of these drugs.

SW-480 cells = assay: as above; assay type: cell-based; settings: 2.5 µM LB-100 (sub-lethal); cell viability after three days; 15 concentrations (FIG. 2B)
Text: (§3) To identify stress-targeted drugs that can be combined with LB-100 to kill cancer cells, a library of 164 compounds was built targeting the different stress responses associated with a malignant phenotype (i.e., proteotoxic stress, oxidative stress, DNA damage stress, mitotic stress, metabolic stress, and apoptosis evasion). These compounds were investigated in 15 different concentrations using a literature-based concentration range in order to obtain dose-response curves for each of these drugs.

[6] = system: RBE cholangiocarcinoma cells; assay: as above; assay type: cell-based; settings: stress-focused screen with LB-100 vs control (FIG. 5A)
Text: as §3

Row | Compound | toxicity in the presence of LB-100 vs control (normalized AUC) (HT-29 cells) | toxicity in the presence of LB-100 vs control (normalized AUC) (SW-480 cells) | increased drug efficacy in the presence of LB-100 (normalized AUC) [6] | further results
1 | CN1CCN(C(=O)[C@@H]2[C@H](C(=O)O)[C@H]3CC[C@@H]2O3)CC1 (racemic) [LB-100] |  |  |  | cytotoxicity, short-term cell viability [1]: moderate toxicity in the lower micro molar range; IC50 [2]: ≥ 4700 nM; IC50 [3]: ≥ 3200 nM; activation of mitogenic signaling and stress response pathways [4]: activates mitogenic signaling pathways and engages stress response pathways; cytotoxicity, long-term cell proliferation [5]: moderate toxicity in the lower micro molar range
2 | N#Cc1cnc(Nc2cc(NC[C@H]3CNCCO3)c(C(F)(F)F)cn2)cn1 [CCT-245737] | increased toxicity |  |  | 
3 | CN(C)CC#Cc1ccc(OCCCc2sc(N3CCc4cccc(C(=O)Nc5nc6ccccc6s5)c4C3)nc2C(=O)O)c(F)c1 [Compound A-1155463] |  | increased in the presence of LB-100 |  | toxicity when combined with LB-100, long-term cell proliferation [5]: increased toxicity
4 | N[C@@H]1CCCN(c2c(Br)cnc3[nH]cc(NC(=O)C4CC4)c23)C1 [GDC-0575] | LB-100 increased the toxicity | among the bottom 5% normalized AUCs | among the top 5% in increased drug efficacy | 
5 | CCN(CC)CCOc1ccc(Nc2ncc3cc(-c4c(Cl)cccc4Cl)c(=O)n(C)c3n2)cc1 [PD0166285] |  | among the bottom 5% normalized AUCs |  | 
6 | Cn1cc(-c2cnn3c(N)c(Br)c([C@@H]4CCCNC4)nc23)cn1 [SCH-900776] | increased toxicity |  | among the top 5% in increased drug efficacy | 
7 | C=CCn1c(=O)c2cnc(Nc3ccc(N4CCN(C)CC4)cc3)nc2n1-c1cccc(C(C)(C)O)n1 [adavosertib] | LB-100 increased the toxicity | among the bottom 5% normalized AUCs | among the top 5% in increased drug efficacy | IC50 ([1]; 120 h, read-out: IC50s from dose-response curves): 180 to 1000 nM; IC50 ([2]; range across CCA cell lines, 5 days, resazurin (FIG. 5C)): 100 to 370 nM; IC50 ([3]; range across four PDAC cell lines, 5 days, resazurin (FIG. 8A, 8B)): 300 to 1700 nM; tolerance to single drug, long-term viability ([5]; DLD1, HCT-116 and SW-480 cells (FIG. 3C)): largely tolerant to up to 500 nM; toxicity when combined with LB-100, long-term cell proliferation [5]: increased toxicity
8 | CNCc1ccc(-c2cc(-c3nc(-c4ccc(S(=O)(=O)C(C)C)cc4)cnc3N)on2)cc1 [berzosertib] |  |  | among the top 5% in increased drug efficacy | 
9 | CC1(C)CCC(c2ccc(Cl)cc2)=C(CN2CCN(c3ccc(C(=O)NS(=O)(=O)c4ccc(N[C@H](CCN5CCOCC5)CSc5ccccc5)c(S(=O)(=O)C(F)(F)F)c4)cc3)CC2)C1 [navitoclax] |  | increased in the presence of LB-100 |  | 
10 | COc1cccc(OCCCN)c1-c1cc(Nc2cnc(C#N)cn2)n[nH]1 [prexasertib] |  | among the bottom 5% normalized AUCs; also recorded: increased toxicity | among the top 5% in increased drug efficacy | toxicity when combined with LB-100, long-term cell proliferation [5]: increased toxicity
11 | Cc1cnc(NC(=O)Nc2cc(Br)c(C)cc2OC[C@@H]2CNCCO2)cn1 [rabusertib] |  | among the bottom 5% normalized AUCs; also recorded: increased toxicity | among the top 5% in increased drug efficacy | 
